Results on 41 compounds are retold here after patent publication US20240150377A1, “MODULATORS OF CYSTIC FIBROSIS TRANSMEMBRANE CONDUCTANCE REGULATOR” (VERTEX PHARMACEUTICALS INCORPORATED, priority 2020, published 2024).

The assay deals with T1, CFTR (Homo sapiens, UniProt P13569, DEL508-508).
T1 construct: endogenous in cells; host or cells: primary human bronchial epithelial cells from CF subjects (F508del/MF-HBE), differentiated at air-liquid interface
Kind of assay: HBE assay: Ussing chamber assay of CFTR-mediated short-circuit currents. The class given is cell-based. To be noted: for EC50: read-out: HBE EC50; for Emax: read-out: HBE Max Activity (%); for activation at 10 µM: read-out: HBE Activity at 10 μM (%). In short, it runs like this: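 CFTR-mediated Isc (μA/cm²) equals the peak response to apical 20 μM forskolin minus the residual after a 20 μM each BPO/GlyH-101/CFTR inhibitor 172 cocktail, recorded in Ussing chambers at Vhold 0 mV, 37 °C, pH 7.4, with 30 μM apical amiloride. Cells were F508del/MF HBE cultures preincubated 18-24 h with corrector (concentration range or 10 μM) plus 1 μM ivacaftor in 20% human serum.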

As usually defined, the EC50 is the concentration needed to bring the measured effect to its halfway point.

Molecules are shown by their SMILES. Read-outs that look alike come from different tables or passages of the source. Some results are limits rather than exact numbers.

T1 sequence (P13569 with tags, fused parts or gaps DEL508-508): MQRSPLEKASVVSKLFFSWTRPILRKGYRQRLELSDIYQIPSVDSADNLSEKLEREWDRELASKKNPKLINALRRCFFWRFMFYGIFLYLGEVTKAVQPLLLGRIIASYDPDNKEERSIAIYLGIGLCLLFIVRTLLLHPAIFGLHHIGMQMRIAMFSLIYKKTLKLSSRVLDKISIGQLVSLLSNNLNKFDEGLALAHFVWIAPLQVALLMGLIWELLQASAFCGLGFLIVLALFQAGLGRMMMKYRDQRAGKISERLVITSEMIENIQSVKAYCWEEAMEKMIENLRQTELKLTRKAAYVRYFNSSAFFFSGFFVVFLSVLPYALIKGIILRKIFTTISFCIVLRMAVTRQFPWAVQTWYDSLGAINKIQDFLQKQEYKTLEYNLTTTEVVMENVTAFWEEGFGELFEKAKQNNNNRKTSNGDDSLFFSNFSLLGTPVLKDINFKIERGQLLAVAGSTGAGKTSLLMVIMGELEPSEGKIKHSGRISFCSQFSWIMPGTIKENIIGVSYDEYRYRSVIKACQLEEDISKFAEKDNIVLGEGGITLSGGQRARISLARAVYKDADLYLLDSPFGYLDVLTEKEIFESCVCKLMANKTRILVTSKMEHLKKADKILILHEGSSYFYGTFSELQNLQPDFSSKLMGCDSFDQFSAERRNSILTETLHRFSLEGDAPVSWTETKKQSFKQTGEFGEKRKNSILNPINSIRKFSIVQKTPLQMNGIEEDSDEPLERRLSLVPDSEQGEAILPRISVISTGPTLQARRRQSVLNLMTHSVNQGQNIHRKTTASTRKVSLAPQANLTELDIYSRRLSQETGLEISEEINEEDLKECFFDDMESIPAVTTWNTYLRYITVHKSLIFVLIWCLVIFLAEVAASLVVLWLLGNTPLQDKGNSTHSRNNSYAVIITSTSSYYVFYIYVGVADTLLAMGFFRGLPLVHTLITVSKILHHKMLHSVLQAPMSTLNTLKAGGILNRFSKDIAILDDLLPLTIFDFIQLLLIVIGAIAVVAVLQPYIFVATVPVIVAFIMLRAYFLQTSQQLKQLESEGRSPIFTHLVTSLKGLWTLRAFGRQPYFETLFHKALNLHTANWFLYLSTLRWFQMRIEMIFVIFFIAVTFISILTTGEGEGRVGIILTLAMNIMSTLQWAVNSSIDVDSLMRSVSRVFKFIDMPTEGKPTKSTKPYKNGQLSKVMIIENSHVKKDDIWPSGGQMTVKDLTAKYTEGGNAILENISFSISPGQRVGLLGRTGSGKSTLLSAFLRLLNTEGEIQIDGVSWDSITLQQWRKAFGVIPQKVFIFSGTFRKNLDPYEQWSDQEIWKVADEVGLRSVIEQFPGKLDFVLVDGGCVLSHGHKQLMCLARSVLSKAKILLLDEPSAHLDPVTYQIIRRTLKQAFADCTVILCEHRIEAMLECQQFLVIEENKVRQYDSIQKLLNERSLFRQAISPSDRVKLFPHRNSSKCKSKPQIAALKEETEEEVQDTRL

Take `Cc1cccc(C)c1-c1cc2nc(n1)NS(=O)(=O)c1cccc(c1)C(=O)N(Cc1ccnc(N(C)C(C)C)n1)[C@H](CC(C)(C)C)CO2` [Compound 628]: under “Table 11”, the 50% effective concentration (EC50) is less than 1000 nM and the Emax was more than 60%.

As for `Cc1cccc(C)c1-c1cc2nc(n1)NS(=O)(=O)c1cccc(c1)C(=O)N(Cc1ncc(N(C(C)C)C(C)C)cn1)[C@H](CC(C)(C)C)CO2` [Compound 629], for the setting “Table 11”, the EC50 lay in the range of 3000 to 30000 nM and the Emax was more than 60%.

Take `Cc1cccc(C)c1-c1cc2nc(n1)NS(=O)(=O)c1cccc(c1)C(=O)N(Cc1cccc(N3CCCC3)n1)[C@H](CC(C)(C)C)CO2` [Compound 630]: where the note is “Table 11”, the concentration giving a half-maximal response (EC50) was less than 1000 nM and the Emax was more than 60%.

With `Cc1cccc(C)c1-c1cc2nc(n1)NS(=O)(=O)c1cccc(c1)C(=O)N(Cc1ncc(C3CCN(C)CC3)cn1)[C@H](CC(C)(C)C)CO2` [Compound 631], where the note is “Table 11”, the EC50 is less than 1000 nM and the Emax was more than 60%.

As to `Cc1cccc(C)c1-c1cc2nc(n1)NS(=O)(=O)c1cccc(c1)C(=O)N(Cc1cccc(N3CC(C)(C)C3)n1)[C@H](CC(C)(C)C)CO2` [Compound 632], where the note is “Table 11”, the EC50 is less than 1000 nM and the Emax was more than 60%.

Turning to `Cc1cccc(C)c1-c1cc2nc(n1)NS(=O)(=O)c1cccc(c1)C(=O)N(Cc1ncc(N(C)C(C)C)cn1)[C@H](CC(C)(C)C)CO2` [Compound 633], where the note is “Table 11”, the EC50 is 1000 to 3000 nM and the Emax is more than 60%.

For `Cc1cccc(C)c1-c1cc2nc(n1)NS(=O)(=O)c1cccc(c1)C(=O)N(Cc1ncc(C3CCOCC3)cn1)[C@H](CC(C)(C)C)CO2` [Compound 634], under “Table 11”, the EC50 was less than 1000 nM and the Emax was more than 60%.

On to `Cc1cccc(C)c1-c1cc2nc(n1)NS(=O)(=O)c1cccc(c1)C(=O)N(Cc1ncc(C3CCC3)cn1)[C@H](CC(C)(C)C)CO2` [Compound 635], for which, where the note is “Table 11”, the 50% effective concentration (EC50) lay in the range of 3000 to 30000 nM and the Emax is more than 60%.

For `Cc1cccc(C)c1-c1cc2nc(n1)NS(=O)(=O)c1cccc(c1)C(=O)N(Cc1nccc(N3CCC(C)(C)CC3)n1)[C@H](CC(C)(C)C)CO2` [Compound 636], for the setting “Table 11”, the “HBE Max activity (%)” value was “+++ (+++ is >60%)” and the EC50 is less than 1000 nM.

`Cc1cccc(C)c1-c1cc2nc(n1)NS(=O)(=O)c1cccc(c1)C(=O)N(Cc1cccc(N(C(C)C)C(C)C)n1)[C@H](CC(C)(C)C)CO2` [Compound 637]: where the note is “Table 11”, the concentration giving a half-maximal response (EC50) was in the range of 3000 to 30000 nM and the Emax is more than 60%.

Turning to `Cc1cccc(C)c1-c1cc2nc(n1)NS(=O)(=O)c1cccc(c1)C(=O)N(Cc1ncc(C3CCCC3)cn1)[C@H](CC(C)(C)C)CO2` [Compound 638], under “Table 11”, the EC50 lay within 1000 to 3000 nM and the Emax was more than 60%.

`COCCN1CCC(CN2C(=O)c3cccc(c3)S(=O)(=O)Nc3nc(cc(-c4c(C)cccc4C)n3)OC[C@H]2CC(C)(C)C)C1=O` (some centres unmarked) [Compound 639]: where the note is “Table 11”, the EC50 is less than 1000 nM and the Emax was more than 60%.

Take `COCCN1CCC(CN2C(=O)c3cccc(c3)S(=O)(=O)Nc3nc(cc(-c4c(C)cccc4C)n3)OC[C@H]2CC(C)(C)C)C1=O` (some centres unmarked) [Compound 640]: the concentration for a half-maximal effect (EC50) (Table 11) is less than 1000 nM.

For `COCCN1CCCC(CN2C(=O)c3cccc(c3)S(=O)(=O)Nc3nc(cc(-c4c(C)cccc4C)n3)OC[C@H]2CC(C)(C)C)C1=O` (some centres unmarked) [Compound 641], under “Table 11”, the half-maximal effective concentration (EC50) lay within 1000 to 3000 nM and the Emax is more than 60%.

For the compound `Cc1cccc(C)c1-c1cc2nc(n1)NS(=O)(=O)c1cccc(c1)C(=O)N(Cc1ncc(C3CC3)cn1)[C@H](CC(C)(C)C)CO2` [Compound 642], under “Table 11”, the concentration for a half-maximal effect (EC50) was in the range of 1000 to 3000 nM and the Emax was more than 60%.

Consider `Cc1cccc(C)c1-c1cc2nc(n1)NS(=O)(=O)c1cccc(c1)C(=O)N(Cc1ncc(C#N)cn1)[C@H](CC(C)(C)C)CO2` [Compound 643], for which, under “Table 11”, the EC50 was less than 1000 nM and the Emax was more than 60%.

On to `Cc1cccc(C)c1-c1cc2nc(n1)NS(=O)(=O)c1cccc(c1)C(=O)N(Cc1ncc(C3CCCCC3)cn1)[C@H](CC(C)(C)C)CO2` [Compound 644], for which, for the setting “Table 11”, the EC50 lay in the range of 1000 to 3000 nM and the Emax is more than 60%.

For the compound `Cc1cccc(C)c1-c1cc2nc(n1)NS(=O)(=O)c1cccc(c1)C(=O)N(Cc1nccc(N)n1)[C@H](CC(C)(C)C)CO2` [Compound 645], for the setting “Table 11”, the EC50 is less than 1000 nM and the Emax is more than 60%.

On to `Cc1cccc(C)c1-c1cc2nc(n1)NS(=O)(=O)c1cccc(c1)C(=O)N(Cc1nccc(NCC(C)(C)C)n1)[C@H](CC(C)(C)C)CO2` [Compound 646], for which, under “Table 11”, the EC50 was less than 1000 nM and the Emax was more than 60%.

With `CNc1ccnc(CN2C(=O)c3cccc(c3)S(=O)(=O)Nc3nc(cc(-c4c(C)cccc4C)n3)OC[C@H]2CC(C)(C)C)n1` [Compound 647], for the setting “Table 11”, the half-maximal effective concentration (EC50) was less than 1000 nM and the Emax is more than 60%.

Turning to `Cc1cccc(C)c1-c1cc2nc(n1)NS(=O)(=O)c1cccc(c1)C(=O)N(Cc1nccc(N3CCC(C)(C)C3)n1)[C@H](CC(C)(C)C)CO2` [Compound 648], where the note is “Table 11”, the EC50 is less than 1000 nM and the Emax is more than 60%.

On to `Cc1cccc(C)c1-c1cc2nc(n1)NS(=O)(=O)c1cccc(c1)C(=O)N(Cc1nccc(N(C)C)n1)[C@H](CC(C)(C)C)CO2` [Compound 649], for which, under “Table 11”, the EC50 was less than 1000 nM and the Emax is more than 60%.

For `Cc1cccc(C)c1-c1cc2nc(n1)NS(=O)(=O)c1cccc(c1)C(=O)N(Cc1nccc(N(C)CC(C)(C)C)n1)[C@H](CC(C)(C)C)CO2` [Compound 650], where the note is “Table 11”, the EC50 was less than 1000 nM and the Emax is more than 60%.

On to `Cc1cccc(C)c1-c1cc2nc(n1)NS(=O)(=O)c1cccc(c1)C(=O)N(Cc1nccc(N3CCOCC3)n1)[C@H](CC(C)(C)C)CO2` [Compound 651], for which, for the setting “Table 11”, the concentration giving a half-maximal response (EC50) is less than 1000 nM and the Emax is more than 60%.

For `Cc1cccc(C)c1-c1cc2nc(n1)NS(=O)(=O)c1cccc(c1)C(=O)N(CC1CCN(CCC(C)(C)C)C1=O)[C@H](CC(C)(C)C)CO2` (some centres unmarked) [Compound 652], under “Table 11”, the activation at 10 µM is more than 60%, the concentration for a half-maximal effect (EC50) is less than 1000 nM and the Emax was more than 60%.

Regarding `Cc1cccc(C)c1-c1cc2nc(n1)NS(=O)(=O)c1cccc(c1)C(=O)N(CC1CCN(CCC(C)(C)C)C1=O)[C@H](CC(C)(C)C)CO2` (some centres unmarked) [Compound 653], the EC50 (Table 11) was less than 1000 nM.

As to `Cc1cccc(C)c1-c1cc2nc(n1)NS(=O)(=O)c1cccc(c1)C(=O)N(CC1CCCN(CCC(C)(C)C)C1=O)[C@H](CC(C)(C)C)CO2` (some centres unmarked) [Compound 654], for the setting “Table 11”, the EC50 is less than 1000 nM and the Emax was more than 60%.

For `Cc1cccc(C)c1-c1cc2nc(n1)NS(=O)(=O)c1cccc(c1)C(=O)N(CC1CCCN(CCC(C)(C)C)C1=O)[C@H](CC(C)(C)C)CO2` (some centres unmarked) [Compound 655], for the setting “Table 11”, the concentration for a half-maximal effect (EC50) was less than 1000 nM.

In the case of `Cc1cccc(C)c1-c1cc2nc(n1)NS(=O)(=O)c1cccc(c1)C(=O)N(Cc1nccc(OC(C)C)n1)[C@H](CC(C)(C)C)CO2` [Compound 656], under “Table 11”, the EC50 is less than 1000 nM and the Emax is more than 60%.

As to `COCCN(C)c1ccnc(CN2C(=O)c3cccc(c3)S(=O)(=O)Nc3nc(cc(-c4c(C)cccc4C)n3)OC[C@H]2CC(C)(C)C)n1` [Compound 657], for the setting “Table 11”, the EC50 was less than 1000 nM and the Emax was more than 60%.

Take `Cc1cccc(C)c1-c1cc2nc(n1)NS(=O)(=O)c1cccc(c1)C(=O)N(Cc1ncc(OC3CCC3)cc1Cl)[C@H](CC(C)(C)C)CO2` [Compound 690]: under “Table 13”, the EC50 was less than 1000 nM and the Emax was more than 60%.

On to `Cc1cccc(C)c1-c1cc2nc(n1)NS(=O)(=O)c1cccc(c1)C(=O)N(Cc1ncc(OC(C)C)cc1Cl)[C@H](CC(C)(C)C)CO2` [Compound 691], for which, under “Table 13”, the EC50 was less than 1000 nM and the Emax was more than 60%.

As to `Cc1cccc(C)c1-c1cc2nc(n1)NS(=O)(=O)c1cccc(c1)C(=O)N(Cc1cnc(N3CCOCC3)s1)[C@H](CC(C)(C)C)CO2` [Compound 693], where the note is “Table 12”, the activation at 10 µM lay within 30 to 60%.

Consider `Cc1cccc(C)c1-c1cc2nc(n1)NS(=O)(=O)c1cccc(c1)C(=O)N(Cc1cncc(N(C)CC(C)(C)C)n1)[C@H](C(C)C)CO2` [Compound 694], for which, where the note is “Table 12”, the concentration for a half-maximal effect (EC50) was less than 1000 nM and the Emax is more than 60%.

For the compound `Cc1cccc(C)c1-c1cc2nc(n1)NS(=O)(=O)c1cccc(c1)C(=O)N(Cc1ncc(N3CCC(C)(C)C3)cn1)[C@H](C(C)C)CO2` [Compound 695], under “Table 12”, the activation at 10 µM is more than 600%, the 50% effective concentration (EC50) was less than 1000 nM and the Emax was less than 30%.

For the compound `Cc1cccc(C)c1-c1cc2nc(n1)NS(=O)(=O)c1cccc(c1)C(=O)N(Cc1ncc(OC(C)C)cn1)[C@H](C(C)C)CO2` [Compound 696], under “Table 12”, the activation at 10 µM is more than 600%, the concentration giving a half-maximal response (EC50) is less than 1000 nM and the Emax was less than 30%.

Consider `Cc1cccc(C)c1-c1cc2nc(n1)NS(=O)(=O)c1cccc(c1)C(=O)N(Cc1ccc3nc(NC(=O)CC(C)C)sc3c1)[C@H](CC(C)(C)C)CO2` [Compound 697], for which the activation at 10 µM (Table 12) is more than 600%.

`Cc1cccc(C)c1-c1cc2nc(n1)NS(=O)(=O)c1cccc(c1)C(=O)N(Cc1nccnc1C)[C@H](CC(C)(C)C)CO2` [Compound 698]: the activation at 10 µM (Table 12) is more than 600%.

Take `Cc1cccc(C)c1-c1cc2nc(n1)NS(=O)(=O)c1cccc(c1)C(=O)N(Cc1cn3ccccc3n1)[C@H](CC(C)(C)C)CO2` [Compound 699]: where the note is “Table 12”, the half-maximal effective concentration (EC50) was less than 1000 nM and the Emax was more than 60%.

`Cc1cccc(C)c1-c1cc2nc(n1)NS(=O)(=O)c1cccc(c1)C(=O)N(Cc1nc3ccccn3c1C)[C@H](CC(C)(C)C)CO2` [Compound 700]: the activation at 10 µM (Table 12) is more than 600%.

In the case of `Cc1cccc(C)c1-c1cc2nc(n1)NS(=O)(=O)c1cccc(c1)C(=O)N(Cc1nc(C3CC3)cs1)[C@H](CC(C)(C)C)CO2` [Compound 701], for the setting “Table 12”, the activation at 10 µM is more than 600%.
